Measured values from the supplement of paper PMC13380429.

What was measured:
[1] = test system: A549-ACE2 infected with SARS-CoV-2; assay: cell count relative to DMSO; higher = less toxic; conditions: 24 h
Caco-2 [2] = assay: cell viability relative to DMSO; higher = less toxic; conditions: 72 h
Calu-3 [3] = assay: as above; conditions: 72 h
HepG2 [4] = assay: as above; conditions: 72 h
U2OS [5] = assay: as above; conditions: 72 h
Vero E6 [6] = assay: as above; conditions: 72 h
[7] = test system: A549-ACE2 infected with SARS-CoV-2; assay: SARS-CoV-2 infection rate relative to DMSO; higher = more infection; conditions: 24 h
A549-ACE2 [8] = assay: phospholipidosis EC50; higher = less potent phospholipidosis inducer
A549-ACE2 [9] = assay: drug-induced phospholipidosis relative to tamoxifen; higher = more phospholipidosis
[10] = test system: A549-ACE2 infected with SARS-CoV-2; assay: morphology score (similarity to uninfected cells); higher = more like uninfected cells; conditions: 24 h
Caco-2 [11] = assay: relative viability EC50 (midpoint between 100% and the lowest measured viability); higher = less toxic; conditions: 72 h
Calu-3 [12] = assay: as above; conditions: 72 h
HepG2 [13] = assay: as above; conditions: 72 h
U2OS [14] = assay: as above; conditions: 72 h
Vero E6 [15] = assay: as above; conditions: 72 h
Caco-2 [16] = assay: drug sensitivity score (DSS) for viability; higher = more toxic; extreme values may be limits of the assay; conditions: 72 h
Calu-3 [17] = assay: as above; conditions: 72 h
HepG2 [18] = assay: as above; conditions: 72 h
U2OS [19] = assay: as above; conditions: 72 h
Vero E6 [20] = assay: as above; conditions: 72 h

Clc1ccc2c(c1)N=C(N1CCNCC1)c1ccccc1N2 [desmethylclozapine]
Conditions | SARS-CoV-2 infection rate [%] | cell count [%] | cell viability [%] | morphology score | phospholipidosis EC50 [nM]
A549-ACE2 [8], 24 h | – | – | – | – | 6540
A549-ACE2 [8], 48 h | – | – | – | – | 6430
A549-ACE2 [8], 72 h | – | – | – | – | 8340
Caco-2 [2], 1 nM | – | – | 88 | – | –
Caco-2 [2], 10 nM | – | – | 94.2 | – | –
Caco-2 [2], 100 nM | – | – | 92.9 | – | –
Caco-2 [2], 1000 nM | – | – | 98.5 | – | –
Caco-2 [2], 10000 nM | – | – | 99.1 | – | –
Calu-3 [3], 1 nM | – | – | 104 | – | –
Calu-3 [3], 10 nM | – | – | 114 | – | –
Calu-3 [3], 100 nM | – | – | 104 | – | –
Calu-3 [3], 1000 nM | – | – | 116 | – | –
Calu-3 [3], 10000 nM | – | – | 91.8 | – | –
HepG2 [4], 1 nM | – | – | 97.3 | – | –
HepG2 [4], 10 nM | – | – | 105 | – | –
HepG2 [4], 100 nM | – | – | 96.8 | – | –
HepG2 [4], 1000 nM | – | – | 104 | – | –
HepG2 [4], 10000 nM | – | – | 87.7 | – | –
U2OS [5], 1 nM | – | – | 106 | – | –
U2OS [5], 10 nM | – | – | 103 | – | –
U2OS [5], 100 nM | – | – | 100 | – | –
U2OS [5], 1000 nM | – | – | 102 | – | –
U2OS [5], 10000 nM | – | – | 97.6 | – | –
Vero E6 [6], 1 nM | – | – | 103 | – | –
Vero E6 [6], 10 nM | – | – | 107 | – | –
Vero E6 [6], 100 nM | – | – | 94.2 | – | –
Vero E6 [6], 1000 nM | – | – | 102 | – | –
Vero E6 [6], 10000 nM | – | – | 93 | – | –
[1], 0.3 µM | – | 100 | – | – | –
[1], 3 µM | – | 112 | – | – | –
[1], 10 µM | – | 115 | – | – | –
[1], 30 µM | – | 121 | – | – | –
[7], 0.3 µM | 96 | – | – | – | –
[7], 3 µM | 62 | – | – | – | –
[7], 10 µM | 28 | – | – | – | –
[7], 30 µM | 13 | – | – | – | –
[10], 0.3 µM | – | – | – | 0.09 | –
[10], 3 µM | – | – | – | 0.63 | –
[10], 10 µM | – | – | – | 0.76 | –
[10], 30 µM | – | – | – | 0.73 | –

drug-induced phospholipidosis [%], A549-ACE2 [9]
Conditions | 0.3 µM | 0.833333 µM | 3.33333 µM | 6.66667 µM | 10 µM | 30 µM
24 h | 3.47 | 2.91 | 27 | 53.9 | 65.2 | 91.3
48 h | 4.09 | 3.86 | 21.2 | 55.4 | 70.7 | 95.8
72 h | 4.5 | 2.24 | 18.3 | 49.2 | 76.1 | 116

Conditions | drug sensitivity score | relative viability EC50 [nM]
Caco-2 [11] | – | > 10000
Caco-2 [16] | 0 | –
Calu-3 [12] | – | > 10000
Calu-3 [17] | 0 | –
HepG2 [13] | – | > 10000
HepG2 [18] | 0 | –
U2OS [14] | – | > 10000
U2OS [19] | 0 | –
Vero E6 [15] | – | > 10000
Vero E6 [20] | 0 | –

O=C(NCCN1CCC2(CC1)C(=O)NCN2c1cccc(F)c1)c1ccc2ccccc2c1
Conditions | SARS-CoV-2 infection rate [%] | cell count [%] | cell viability [%] | morphology score | phospholipidosis EC50 [nM]
A549-ACE2 [8], 24 h | – | – | – | – | 2210
A549-ACE2 [8], 48 h | – | – | – | – | 3210
A549-ACE2 [8], 72 h | – | – | – | – | 4550
Caco-2 [2], 1 nM | – | – | 102 | – | –
Caco-2 [2], 10 nM | – | – | 93.5 | – | –
Caco-2 [2], 100 nM | – | – | 95.2 | – | –
Caco-2 [2], 1000 nM | – | – | 90.8 | – | –
Caco-2 [2], 10000 nM | – | – | 52.4 | – | –
Calu-3 [3], 1 nM | – | – | 100 | – | –
Calu-3 [3], 10 nM | – | – | 102 | – | –
Calu-3 [3], 100 nM | – | – | 94.8 | – | –
Calu-3 [3], 1000 nM | – | – | 95 | – | –
Calu-3 [3], 10000 nM | – | – | 11.2 | – | –
HepG2 [4], 1 nM | – | – | 104 | – | –
HepG2 [4], 10 nM | – | – | 106 | – | –
HepG2 [4], 100 nM | – | – | 102 | – | –
HepG2 [4], 1000 nM | – | – | 85.9 | – | –
HepG2 [4], 10000 nM | – | – | 54.5 | – | –
U2OS [5], 1 nM | – | – | 101 | – | –
U2OS [5], 10 nM | – | – | 104 | – | –
U2OS [5], 100 nM | – | – | 97.7 | – | –
U2OS [5], 1000 nM | – | – | 100 | – | –
U2OS [5], 10000 nM | – | – | 71 | – | –
Vero E6 [6], 1 nM | – | – | 103 | – | –
Vero E6 [6], 10 nM | – | – | 95.6 | – | –
Vero E6 [6], 100 nM | – | – | 97.4 | – | –
Vero E6 [6], 1000 nM | – | – | 96.4 | – | –
Vero E6 [6], 10000 nM | – | – | 84.8 | – | –
[1], 0.3 µM | – | 96 | – | – | –
[1], 3 µM | – | 115 | – | – | –
[1], 10 µM | – | 93 | – | – | –
[1], 30 µM | – | 3 | – | – | –
[7], 0.3 µM | 107 | – | – | – | –
[7], 3 µM | 35 | – | – | – | –
[7], 10 µM | 20 | – | – | – | –
[7], 30 µM | 48 | – | – | – | –
[10], 0.3 µM | – | – | – | -0.21 | –
[10], 3 µM | – | – | – | 0.7 | –
[10], 10 µM | – | – | – | 0.39 | –
[10], 30 µM | – | – | – | 0.06 | –

drug-induced phospholipidosis [%], A549-ACE2 [9]
Conditions | 0.3 µM | 0.833333 µM | 3.33333 µM | 6.66667 µM | 10 µM | 30 µM
24 h | 1.19 | 9.12 | 93.1 | 112 | 127 | 127
48 h | 2.88 | 7.95 | 76.2 | 107 | 140 | 134
72 h | 2.25 | 6.48 | 52.3 | 100 | 120 | –

Conditions | drug sensitivity score | relative viability EC50 [nM]
Caco-2 [16] | 4 | –
Calu-3 [12] | – | 2720
Calu-3 [17] | 5.7 | –
HepG2 [18] | 4.4 | –
U2OS [19] | 1.2 | –
Vero E6 [15] | – | > 10000
Vero E6 [20] | 0.5 | –

CCC(C)(C)C(=O)O[C@H]1C[C@@H](C)C=C2C=C[C@H](C)[C@H](CC[C@@H]3C[C@@H](O)CC(=O)O3)[C@H]21 [simvastatin]
[10]
Conditions | morphology score
0.1 µM | 0.01
0.3 µM | 0.17
1 µM | 0.04
3 µM | -0.23

O=C(c1ccc(Nc2nccc(-c3cc4ccccc4s3)n2)cc1)N1CCC(N2CCCC2)CC1 [IKK-16]
Conditions | SARS-CoV-2 infection rate [%] | cell count [%] | cell viability [%] | morphology score | phospholipidosis EC50 [nM]
A549-ACE2 [8], 24 h | – | – | – | – | 1050
A549-ACE2 [8], 48 h | – | – | – | – | 1530
A549-ACE2 [8], 72 h | – | – | – | – | 1100
Caco-2 [2], 1 nM | – | – | 97.6 | – | –
Caco-2 [2], 10 nM | – | – | 102 | – | –
Caco-2 [2], 100 nM | – | – | 98.9 | – | –
Caco-2 [2], 1000 nM | – | – | 79.8 | – | –
Caco-2 [2], 10000 nM | – | – | 9.4 | – | –
HepG2 [4], 1 nM | – | – | 95.9 | – | –
HepG2 [4], 10 nM | – | – | 108 | – | –
HepG2 [4], 100 nM | – | – | 91.6 | – | –
HepG2 [4], 1000 nM | – | – | 86.9 | – | –
HepG2 [4], 10000 nM | – | – | -0.2 | – | –
U2OS [5], 1 nM | – | – | 97.4 | – | –
U2OS [5], 10 nM | – | – | 95.5 | – | –
U2OS [5], 100 nM | – | – | 97.6 | – | –
U2OS [5], 1000 nM | – | – | 91.7 | – | –
U2OS [5], 10000 nM | – | – | 0.8 | – | –
Vero E6 [6], 1 nM | – | – | 97.4 | – | –
Vero E6 [6], 10 nM | – | – | 99.5 | – | –
Vero E6 [6], 100 nM | – | – | 99.5 | – | –
Vero E6 [6], 1000 nM | – | – | 97.6 | – | –
Vero E6 [6], 10000 nM | – | – | -0.2 | – | –
[1], 0.1 µM | – | 102 | – | – | –
[1], 0.3 µM | – | 93 | – | – | –
[1], 1 µM | – | 111 | – | – | –
[1], 3 µM | – | 109 | – | – | –
[7], 0.1 µM | 101 | – | – | – | –
[7], 0.3 µM | 104 | – | – | – | –
[7], 1 µM | 62 | – | – | – | –
[7], 3 µM | 19 | – | – | – | –
[10], 0.1 µM | – | – | – | -0.12 | –
[10], 0.3 µM | – | – | – | -0.2 | –
[10], 1 µM | – | – | – | 0.57 | –
[10], 3 µM | – | – | – | 0.49 | –

drug-induced phospholipidosis [%], A549-ACE2 [9]
Conditions | 0.3 µM | 0.833333 µM | 3.33333 µM | 6.66667 µM | 10 µM | 30 µM
24 h | -2.91 | 8.17 | 163 | 140 | 179 | 55.6
48 h | -0.02 | 5.69 | 114 | 107 | 125 | –
72 h | 0.998 | 5.79 | 108 | 91.2 | – | –

Conditions | drug sensitivity score | relative viability EC50 [nM]
Caco-2 [11] | – | 1640
Caco-2 [16] | 8.2 | –
HepG2 [13] | – | 2100
HepG2 [18] | 7.7 | –
U2OS [14] | – | 2480
U2OS [19] | 6.8 | –
Vero E6 [15] | – | 2980
Vero E6 [20] | 5.9 | –
